Experimental data reported in patent US20170128468A1, “PHOSPHATIDYLGLYCEROL AS AN ANTI-INFLAMMATORY” (Agusta University Research Institute, Inc., priority 2015, published 2017).

Experiments:
[1] = system: Pam3CSK4-induced inflammatory mediator expression in keratinocytes; experiment: qRT-PCR of inflammatory mediator mRNA in keratinocytes treated with Pam3CSK4 (TLR1/2 agonist); format: cell-based, mouse
Description: (§1) Primary cultures of mouse epidermal keratinocytes were prepared from ICR strain CD-1 outbred neonatal mice 1-3 days of age as described in detail in (Bollag W B, et al., J Invest Derm 100 240-246 (1993); Griner R, et al., J Biol Chem, 274 4663-4670 (1999)). All procedures were approved by the Institutional Animal Care and Use Committee. RAW264.7 cells, a mouse macrophage-derived cell line, were kindly provided by Drs. Qing Zhong and Carlos Isales (Augusta University) and were cultured in DMEM containing 10% fetal bovine serum and 1% penicillin and streptomycin.
(§2) Keratinocytes were treated with or without TPA or a synthetic triacylated lipoprotein (Pam3CSK4), a TLR1/TLR2 agonist, or recombinant S100A9 (R&D Systems) or HSPB4 (MyBiosoruce) as indicated, for 2 hours in the presence and absence of different concentrations of soy PG or dioleoylphosphatidylglycerol (DOPG). Cells were harvested and RNA isolated using PerfectPure RNA tissue kits (5 PRIME, Inc, Gaithersburg, Md., USA) as per the manufacturer's protocol. Following verification of RNA integrity using a Nanodrop instrument (NanoDrop Technologies, Wilmington, Del.), RNA was reverse-transcribed to cDNA with iScript cDNA synthesis kits (Bio-Rad Laboratories, Hercules, Calif., USA) and analyzed by real-time PCR using Taqman primer/probe sets from Applied Biosystems (Life Technologies, Grand Island, N.Y.). […]

[2] = system: Pam3CSK4-induced inflammatory mediator expression in macrophage cell line RAW 264.7; experiment: qRT-PCR of inflammatory mediator mRNA in RAW 264.7 macrophage cell line treated with Pam3CSK4; format: cell-based, mouse; conditions: 2 h
Description: as §1
(§3) Keratinocytes were treated with or without TPA or a synthetic triacylated lipoprotein (Pam3CSK4), a TLR1/TLR2 agonist, or recombinant S100A9 (R&D Systems) or HSPB4 (MyBiosoruce) as indicated, for 2 hours in the presence and absence of different concentrations of soy PG or dioleoylphosphatidylglycerol (DOPG). Cells were harvested and RNA isolated using PerfectPure RNA tissue kits (5 PRIME, Inc, Gaithersburg, Md., USA) as per the manufacturer's protocol. Following verification of RNA integrity using a Nanodrop instrument (NanoDrop Technologies, Wilmington, Del.), RNA was reverse-transcribed to cDNA with iScript cDNA synthesis kits (Bio-Rad Laboratories, Hercules, Calif., USA) and analyzed by real-time PCR using Taqman primer/probe sets from Applied Biosystems (Life Technologies, Grand Island, N.Y.). Reactions were performed using Fast Reagent PCR Master Mix (Applied Biosystems) and a StepOnePlus Real-Time PCR System (Applied Biosystems) as instructed by the manufacturer. Expression of genes of interest was determined using the delta-delta Ct method normalized to the expression of GAPDH as the endogenous housekeeping gene and expressed relative to the appropriate control group.

[3] = system: S100A9-induced inflammatory mediator expression in RAW 264.7 macrophage cell line; experiment: qRT-PCR of inflammatory mediator mRNA in RAW 264.7 cells treated with recombinant S100A9; format: cell-based, mouse; conditions: 2 h, FIGS. 6A-6D
Description: as §1, §2

[4] = system: HSPB4-induced inflammatory mediator expression in RAW cell line; experiment: qRT-PCR of inflammatory mediator mRNA in RAW 264.7 cells treated with recombinant HSPB4; format: cell-based, mouse; conditions: 2 h, FIGS. 7A-7D
Description: as §1, §2

[5] = system: TNFα protein secretion by RAW264.7 cells; experiment: TNFα protein secretion by ELISA in RAW264.7 culture supernatants; format: cell-based, mouse; conditions: 2 h; for TNFα protein secretion: DAMP alone (S100A9 2 μg/mL; HSPB4 0.1 or 1 μg/mL), FIGS. 8A-8B
Description: Cells were treated with recombinant S100A9 or recombinant HSPB4 as indicated and media collected. TNFα levels were determined in the supernatant using an ELISA kit (BD Biosciences) according to the manufacturer's instructions.
Mouse TNFα ELISA kits from BD Biosciences (San Jose, Calif.) were used. RAW264.7 cells were treated with or without recombinant S100A9 or HSPB4 in the presence and absence of DOPG for 2 hours. Cell culture supernatants were collected and stored at −80° C. and subjected to a single freeze-thaw cycle. The ELISA assay was performed according to the manufacturer's instructions with the optical density detected in each sample within 30 minutes, at a wavelength of 450 nm and corrected at 570 nm.

[6] = system: NF-κB phosphorylation/activation in RAW264.7 cells; experiment: Western analysis of NF-κB phosphorylation/activation in RAW264.7 cells stimulated with Pam3CSK4; format: cell-based, mouse; conditions: 10 minutes, FIG. 9
Description: Membranes containing transferred proteins were blocked with 5% non-fat dry milk for at least 30 minutes before incubating with the appropriate primary antibodies, overnight, followed by washing and incubating with secondary antibodies for 1 h at room temperature. Immunoreactivity was visualized using infrared imaging on an Odyssey imaging system (LI-COR Biosciences, Lincoln, Nebr.).

TPA-induced ear edema = experiment: Contact irritant (TPA) ear edema mouse in vivo model
Description: Experiments were performed as described in (27). Briefly, the ears of three to five male ICR CD-1 outbred mice [25-30 g; 5-6 weeks of age from Harlan Laboratories (Indianapolis, Ind.)] were treated with acetone or TPA (0.03% in acetone), and at 1 h and 4 h after TPA, the appropriate vehicle or the treatment in vehicle was applied to each ear. Ear thickness was measured using a caliper both before and at approximately 18-20 h after TPA treatment prior to sacrifice. After sacrifice, a circular ear punch biopsy (4 mm^2) was taken, weighed, and fixed in formalin. Histological evaluation included H&E staining and immunohistochemical staining for CD45 to quantify the number of infiltrating immune cells (see below).
(§4) Sections (10 μm) were cut from formalin-fixed paraffin-embedded ear biopsies and deparaffinized and rehydrated as described in (28). […] Multiple random sections (4 to 8 per mouse separately from the left and right ear) were counted by two independent observers in a blinded fashion, counts averaged to determine a value for each mouse ear and values statistically analyzed as described below.
Experiments were performed as described in Clark S P; Bollag W B; Westlund K N; Ma F; Falls G; Xie D; Johnson M; Isales C M; Bhattacharyya M H: Pine oil effects on chemical and thermal injury in mice and cultured mouse dorsal root ganglion neurons. […] Ear thickness was measured using a caliper both before and at approximately 18-20 h after TPA treatment prior to sacrifice. […] Histological evaluation included H&E staining and immunohistochemical staining for CD45 to quantify the number of infiltrating immune cells (see below).
as §4, with “(Voss K E et al., Arch. Dermatol. Res. 303 591-600 (2011)).” for “(28).”, “below. […]” for “below.”

[7] = system: S100A9-induced inflammatory mediator expression in keratinocytes; experiment: qRT-PCR of inflammatory mediator mRNA in keratinocytes treated with recombinant S100A9 or LPS; format: cell-based, mouse
Description: as §1, §3

[8] = co-treatment with DOPG 100 μg/mL
[9] = recombinant S100A9 alone, keratinocytes, data not shown

CCCCCCCC/C=C\CCCCCCCC(=O)OC[C@H](COP(=O)(O)OCC(O)CO)OC(=O)CCCCCCC/C=C\CCCCCCCC (some centres unmarked) [DOPG, dioleoylphosphatidylglycerol]
Pam3CSK4-induced increase in the expression of all cytokines tested (IL1α, IL1β, IL6, TNFα mRNA) ([1]; DOPG at either 50 or 100 μg/mL, Pam3CSK4 1 or 2.5 μg/mL, 2-hour incubation, FIGS. 1A-1D): significantly inhibited | Pam3CSK4-induced IL1α expression ([2]; DOPG 50 μg/mL): inhibited | Pam3CSK4-induced IL1β expression ([2]; DOPG 50 μg/mL): inhibited | Pam3CSK4 induction of TNFα ([2]; DOPG 50 or 100 μg/mL): no effect | Pam3CSK4-induced IL1α mRNA level [2, 8]: inhibition | Pam3CSK4-induced IL1β mRNA level [2, 8]: inhibition | Pam3CSK4-induced IL6 mRNA level [2, 8]: inhibition | S100A9-induced increase in inflammatory mediator expression ([3]; 100 μg/mL DOPG with 2 μg/mL S100A9): inhibit | HSPB4 induction of inflammatory mediator expression ([4]; 100 μg/mL DOPG with 0.1 or 1 μg/mL HSPB4): inhibited | S100A9-induced increase in TNFα protein secretion ([5]; 100 μg/mL DOPG with 2 μg/mL S100A9, FIG. 8A): inhibited | HSPB4-induced increase in TNFα protein secretion ([5]; 100 μg/mL DOPG with 0.1 or 1 μg/mL HSPB4, FIG. 8B): inhibited | Pam3CSK4-increased phosphorylation/activation of NF-κB ([6]; co-treatment with 100 μg/mL DOPG, 2.5 μg/mL Pam3CSK4): inhibited

C=C1/C(=C\C=C2/CCC[C@]3(C)[C@@H]([C@H](C)CCCC(C)(C)O)CC[C@@H]23)C[C@@H](O)C[C@@H]1O [1,25-dihydroxyvitamin D3]
effect on ear edema (TPA-induced ear edema; agent alone in 95% ethanol/5% water, applied 1 and 4 h after 0.03% TPA, FIGS. 10A-10C): neither 1,25-dihydroxyvitamin D3 nor soy PG alone had a significant effect

Pam3CSK4 [reference compound]
inflammatory mediator expression in keratinocytes treated with TLR2 agonist ([1]; agonist alone, in vitro): increased | mRNA levels of IL1α, IL1β, IL6 and TNFα upon stimulation ([2]; Pam3CSK4 1 or 2.5 μg/mL alone, FIGS. 3A-3D): up-regulated | phosphorylation/activation of NF-κB (pNFκB/NFκB ratio) ([6]; 2.5 μg/mL Pam3CSK4 alone): increased

CCCCCCCCCCCCCC(=O)O[C@@H]1[C@@H](C)[C@@]2(O)[C@@H](C=C(CO)C[C@]3(O)C(=O)C(C)=C[C@@H]23)[C@@H]2C(C)(C)[C@]12OC(C)=O [TPA, 12-O-tetra-decanoylphorbol 13-acetate]
increase in ear thickness (TPA-induced ear edema; TPA alone, no subsequent treatment with vehicle, percent change from time 0): 147±16% | increase in ear weight (TPA-induced ear edema; TPA alone, no subsequent treatment with vehicle, punch biopsy versus no-TPA mice): 158±6%

phosphatidylglycerol [PG]
S100A9-induced expression of IL-1β ([7]; 100 μg/mL DOPG with 3 μg/mL recombinant S100A9, 2 h, FIG. 5A): inhibited | S100A9-induced expression of IL-6 ([7]; 100 μg/mL DOPG with 3 μg/mL recombinant S100A9, 2 h, FIG. 5B): inhibited | S100A9-induced expression of TNFα ([7]; 100 μg/mL DOPG with 3 μg/mL recombinant S100A9, 2 h, FIG. 5C): inhibited

B1: HSPB4: recombinant small heat shock protein, a DAMP shown to mediate sterile corneal inflammation (protein, UniProt P02489 1-173, looked up)
Alpha-crystallin A chain: MDVTIQHPWFKRTLGPFYPSRLFDQFFGEGLFEYDLLPFLSSTISPYYRQSLFRTVLDSGISEVRSDRDKFVIFLDVKHFSPEDLTVKVQDDFVEIHGKHNERQDDHGYISREFHRRYRLPSNVDQSALSCSLSADGMLTFCGPKIQTGLDATHAERAIPVSREEKPTSAPSS
inflammatory mediator expression (IL1α, IL1β, IL6, TNFα mRNA) ([4]; 0.1 or 1 μg/mL recombinant HSPB4 alone): stimulate | TNFα protein secretion [5]: induce

B2: S100A9: recombinant anti-microbial protein, a DAMP that activates TLR2 (as well as TLR4) (protein, UniProt P06702 1-114, looked up)
Protein S100-A9: MTCKMSQLERNIETIINTFHQYSVKLGHPDTLNQGEFKELVRKDLQNFLKKENKNEKVIEHIMEDLDTNADKQLSFEEFIMLMARLTWASHEKMHEGDEGPGHHHKPGLGEGTP
IL-1α expression ([7]; S100A9 alone, keratinocytes): only minimally stimulated | expression of IL1β ([7]; recombinant S100A9 alone, 1 to 3 μg/mL, 2 h, FIG. 4B): stimulated | expression of IL6 ([7]; recombinant S100A9 alone, 1 to 3 μg/mL, 2 h, FIG. 4C): stimulated | expression of TNFα ([7]; recombinant S100A9 alone, 1 to 3 μg/mL, 2 h, FIG. 4D): stimulated | expression of TLR1 [7, 9]: induced | expression of TLR2 [7, 9]: induced | inflammatory mediator expression (IL1α, IL1β, IL6, TNFα mRNA) ([3]; 2 μg/mL recombinant S100A9 alone): increases | TNFα protein secretion [5]: induce

B3: denatured (heated) S100A9: heat-denatured recombinant S100A9 protein (protein, UniProt P06702 1-114, looked up)
Protein S100-A9: MTCKMSQLERNIETIINTFHQYSVKLGHPDTLNQGEFKELVRKDLQNFLKKENKNEKVIEHIMEDLDTNADKQLSFEEFIMLMARLTWASHEKMHEGDEGPGHHHKPGLGEGTP
modifications: heat-denatured
notes: heat-denatured recombinant S100A9 protein
stimulating inflammatory mediator mRNA levels, relative to native S100A9 ([7]; denatured (heated) protein, keratinocytes): significantly less effective
